{
  "source": "patent US20250101436A1",
  "about": "“APTAMERS AND SMALL MOLECULE LIGANDS” (MeiraGTx UK II Limited, priority 2021, published 2025)",
  "data": [
    {"test_system": "luciferase gene expression in HEK 293 cells in response to Comp. 004", "test": "Screen of riboswitch constructs with 12C6-1 variant aptamers (libraries N1-N5) against Comp. 004, luciferase in HEK 293 cells", "format": "cell-based, human", "conditions": "library N1 (J2-4), HEK 293, 25 M [sic] Comp. 004", "description": "(§1) Cloning of riboswitch constructs containing 12C6-1 variant aptamer sequences: 12C6-1 aptamer sequence was used as template, and nucleobases were randomized at certain position in the sequence. Aptamers incorporating random mutagenesis were synthesized by Integrated DNA Technologies, Inc. Golden Gate cloning strategy (New England Biolabs, NEB) was used to clone the synthesized aptamer sequences into intron-exon-intron cassette to replace the 12C6-1 aptamer in the Luci-12C6-1 riboswitch construct, generating riboswitch constructs containing variant aptamer sequences.\n(§2) To further improve the riboswitch activity in responding to Comp. 004 and related compounds, the aptamer sequence 12C6-1 was subject to mutagenesis to generate aptamer variants, and the riboswitches containing the variant aptamers were screened against Comp. 004 for the ones that have improved dynamic range of induced gene expression (the fold induction), in comparison with the fold induction by parental riboswitch construct Luci-12C6-1. […] These loop or junction region alone or together with stem region in proximity were chosen for random mutagenesis to generate riboswitches with re-engineered aptamer sequences with improved activity.\n(§3) Five aptamer libraries N1, N2, N3, N4 and N5 were generated by randomizing nucleotides at positions in J2-4, J2-3/J3-3a/J3a-2/P3, L3a, J4-5/J5-4/P4 and L5 regions of the parent 12C6-1 sequence, respectively (see FIGS. 3a and 3b). Single bacterial colonies were picked and plasmids containing variant riboswitch constructs were screened in HEK 293 cells for improved gene regulation activity in response to 25 µM Comp. 004 as compared to parent riboswitch construct Luci-12C6-1.", "units": {"Fold (induction of luciferase gene expression)": "fold"}, "values": [
      {"substance": "N1_2E7 (CTGGGGAGTCCTTCATGCGGGGC; chemistry not given here)", "Fold (induction of luciferase gene expression)": 19.91},
      {"substance": "N1_2H9 (CTGGGGAGTCCTTCATGCGGGGC; chemistry not given here)", "Fold (induction of luciferase gene expression)": 1.91},
      {"substance": "N1_2H2 (CTGGGGAGTCCTTCATGCGGGGC; chemistry not given here)", "Fold (induction of luciferase gene expression)": 2.85},
      {"substance": "N1_2F7 (CTGGGGAGTCCTTCATGCGGGGC; chemistry not given here)", "Fold (induction of luciferase gene expression)": 41.88},
      {"substance": "N1_2E10 (CTGGGGAGTCCTTCATGCGGGGC; chemistry not given here)", "Fold (induction of luciferase gene expression)": 2.86},
      {"substance": "N1_2F12 (CTGGGGAGTCCTTCATGCGGGGC; chemistry not given here)", "Fold (induction of luciferase gene expression)": 1.83}
    ]},
    {"test_system": "luciferase gene expression in HEK 293 cells in response to Comp. 004", "test": "Screen of riboswitch constructs with 12C6-1 variant aptamers (libraries N1-N5) against Comp. 004, luciferase in HEK 293 cells", "format": "cell-based, human", "conditions": "library N2 variant aptamers (J2-3, P3-J3-3a, J3a-2 randomized) of 12C6-1 in riboswitch constructs; in response to Comp. 004; HEK 293 cells", "description": "as §1, §2, §3", "units": {"Fold (induction of luciferase gene expression)": "fold"}, "values": [
      {"substance": "N2_2G11 (DNA CTGGGGAGTCCTTCATGC; chemistry not given here)", "Fold (induction of luciferase gene expression)": 0.9},
      {"substance": "N2_2A8 (CTGGGGAGTCCTTCATGC; chemistry not given here)", "Fold (induction of luciferase gene expression)": 1.0},
      {"substance": "N2_2D9 (DNA CTGGGGAGTCCTTCATGC; chemistry not given here)", "Fold (induction of luciferase gene expression)": 1.0},
      {"substance": "N2_2A3 (CTGGGGAGTCCTTCATGC; chemistry not given here)", "Fold (induction of luciferase gene expression)": 0.8},
      {"substance": "N2_2A7 (CTGGGGAGTCCTTCATGC; chemistry not given here)", "Fold (induction of luciferase gene expression)": 0.9},
      {"substance": "N2_2H10 (CTGGGGAGTCCTTCATGC; chemistry not given here)", "Fold (induction of luciferase gene expression)": 1.0},
      {"substance": "N2_2C8 (CTGGGGAGTCCTTCATGC; chemistry not given here)", "Fold (induction of luciferase gene expression)": 0.9},
      {"substance": "N2_2D12 (DNA CTGGGGAGTCCTTCATGC; chemistry not given here)", "Fold (induction of luciferase gene expression)": 1.1},
      {"substance": "N2_2H11 (CTGGGGAGTCCTTCATGC; chemistry not given here)", "Fold (induction of luciferase gene expression)": 1.2},
      {"substance": "N2_2E6 (DNA CTGGGGAGTCCTTCATGC; chemistry not given here)", "Fold (induction of luciferase gene expression)": 0.9},
      {"substance": "N2_2E7 (DNA CTGGGGAGTCCTTCATGC; chemistry not given here)", "Fold (induction of luciferase gene expression)": 1.1},
      {"substance": "N2_2A5 (CTGGGGAGTCCTTCATGC; chemistry not given here)", "Fold (induction of luciferase gene expression)": 1.0},
      {"substance": "N2_2B11 (CTGGGGAGTCCTTCATGC; chemistry not given here)", "Fold (induction of luciferase gene expression)": 1.2},
      {"substance": "N2_2E12 (DNA CTGGGGAGTCCTTCATGC; chemistry not given here)", "Fold (induction of luciferase gene expression)": 1.3}
    ]},
    {"test_system": "luciferase gene expression in HEK 293 cells in response to Comp. 004", "test": "Screen of riboswitch constructs with 12C6-1 variant aptamers (libraries N1-N5) against Comp. 004, luciferase in HEK 293 cells", "format": "cell-based, human", "conditions": "library N5 variant aptamers (L5, X16-X21 randomized) of 12C6-1 in riboswitch constructs; in response to Comp. 004 treatment; HEK 293 cells", "description": "as §1, §2, §3", "units": {"Fold (induction of luciferase gene expression)": "fold"}, "values": [
      {"substance": "N5_9C12 (DNA CTGGGGAGTCCT; chemistry not given here)", "Fold (induction of luciferase gene expression)": 1094.3},
      {"substance": "N5_8G9 (DNA CTGGGGAGTCCT; chemistry not given here)", "Fold (induction of luciferase gene expression)": 1066.5},
      {"substance": "N5_7G10 (DNA CTGGGGAGTCCT; chemistry not given here)", "Fold (induction of luciferase gene expression)": 530.8},
      {"substance": "N5_7B6 (CTGGGGAGTCCT; chemistry not given here)", "Fold (induction of luciferase gene expression)": 875.4},
      {"substance": "N5_12G11 (CTGGGGAGTCCT; chemistry not given here)", "Fold (induction of luciferase gene expression)": 1043.8},
      {"substance": "N5_7H4 (DNA CTGGGGAGTCCT; chemistry not given here)", "Fold (induction of luciferase gene expression)": 560.0},
      {"substance": "N5_1D2 (CTGGGGAGTCCT; chemistry not given here)", "Fold (induction of luciferase gene expression)": 561.3},
      {"substance": "N5_14G11 (CTGGGGAGTCCT; chemistry not given here)", "Fold (induction of luciferase gene expression)": 1775.3},
      {"substance": "N5_1B2 (CTGGGGAGTCCT; chemistry not given here)", "Fold (induction of luciferase gene expression)": 747.7},
      {"substance": "N5_7A7 (CTGGGGAGTCCT; chemistry not given here)", "Fold (induction of luciferase gene expression)": 1226.2},
      {"substance": "N5_7F4 (DNA CTGGGGAGTCCT; chemistry not given here)", "Fold (induction of luciferase gene expression)": 1239.0},
      {"substance": "N5_12F12 (CTGGGGAGTCCT; chemistry not given here)", "Fold (induction of luciferase gene expression)": 1169.8},
      {"substance": "N5_7A4 (CTGGGGAGTCCT; chemistry not given here)", "Fold (induction of luciferase gene expression)": 988.3},
      {"substance": "N5_12G6 (CTGGGGAGTCCT; chemistry not given here)", "Fold (induction of luciferase gene expression)": 2750.8},
      {"substance": "N5_13H3 (CTGGGGAGTCCT; chemistry not given here)", "Fold (induction of luciferase gene expression)": 1288.5},
      {"substance": "N5_5E4 (CTGGGGAGTCCT; chemistry not given here)", "Fold (induction of luciferase gene expression)": 1116.0},
      {"substance": "N5_7C1 (CTGGGGAGTCCT; chemistry not given here)", "Fold (induction of luciferase gene expression)": 87.5},
      {"substance": "N5_12F11 (CTGGGGAGTCCT; chemistry not given here)", "Fold (induction of luciferase gene expression)": 926.7},
      {"substance": "N5_1G8 (CTGGGGAGTCCT; chemistry not given here)", "Fold (induction of luciferase gene expression)": 888.7},
      {"substance": "N5_7F6 (DNA CTGGGGAGTCCT; chemistry not given here)", "Fold (induction of luciferase gene expression)": 898.5},
      {"substance": "N5_7A5 (CTGGGGAGTCCT; chemistry not given here)", "Fold (induction of luciferase gene expression)": 785.5},
      {"substance": "N5_1H3 (CTGGGGAGTCCT; chemistry not given here)", "Fold (induction of luciferase gene expression)": 764.7},
      {"substance": "N5_7H12 (DNA CTGGGGAGTCCT; chemistry not given here)", "Fold (induction of luciferase gene expression)": 1194.5},
      {"substance": "N5_7G8 (DNA CTGGGGAGTCCT; chemistry not given here)", "Fold (induction of luciferase gene expression)": 775.6},
      {"substance": "N5_3F11 (CTGGGGAGTCCT; chemistry not given here)", "Fold (induction of luciferase gene expression)": 1628.3},
      {"substance": "N5_2D10 (CTGGGGAGTCCT; chemistry not given here)", "Fold (induction of luciferase gene expression)": 884.5},
      {"substance": "N5_1H10 (CTGGGGAGTCCT; chemistry not given here)", "Fold (induction of luciferase gene expression)": 781.1},
      {"substance": "N5_11B9 (CTGGGGAGTCCT; chemistry not given here)", "Fold (induction of luciferase gene expression)": 1595.4},
      {"substance": "N5_1B3 (CTGGGGAGTCCT; chemistry not given here)", "Fold (induction of luciferase gene expression)": 792.0},
      {"substance": "N5_1E11 (CTGGGGAGTCCT; chemistry not given here)", "Fold (induction of luciferase gene expression)": 1095.6},
      {"substance": "N5_6E6 (CTGGGGAGTCCT; chemistry not given here)", "Fold (induction of luciferase gene expression)": 1032.8},
      {"substance": "N5_7C7 (DNA CTGGGGAGTCCT; chemistry not given here)", "Fold (induction of luciferase gene expression)": 489.1},
      {"substance": "N5_2D9 (CTGGGGAGTCCT; chemistry not given here)", "Fold (induction of luciferase gene expression)": 735.9},
      {"substance": "N5_1B10 (CTGGGGAGTCCT; chemistry not given here)", "Fold (induction of luciferase gene expression)": 1013.6},
      {"substance": "N5_5B7 (CTGGGGAGTCCT; chemistry not given here)", "Fold (induction of luciferase gene expression)": 1317.2},
      {"substance": "N5_1B5 (CTGGGGAGTCCT; chemistry not given here)", "Fold (induction of luciferase gene expression)": 780.8},
      {"substance": "N5_7C12 (CTGGGGAGTCCT; chemistry not given here)", "Fold (induction of luciferase gene expression)": 628.9},
      {"substance": "N5_6F5 (CTGGGGAGTCCT; chemistry not given here)", "Fold (induction of luciferase gene expression)": 1665.4}
    ]}
  ]
}
